Drawing on ChEMBL document CHEMBL5725340, “BMP inhibitors and methods of use thereof” (2017), this text covers IC50 for one molecule.

What is called IC50 is the midpoint of a concentration-inhibition curve.

The structures appear in SMILES notation.

The assay has as its target T1, Activin receptor type-1 (Homo sapiens, UniProt Q04771).
T1 sequence (Q04771 whole entry): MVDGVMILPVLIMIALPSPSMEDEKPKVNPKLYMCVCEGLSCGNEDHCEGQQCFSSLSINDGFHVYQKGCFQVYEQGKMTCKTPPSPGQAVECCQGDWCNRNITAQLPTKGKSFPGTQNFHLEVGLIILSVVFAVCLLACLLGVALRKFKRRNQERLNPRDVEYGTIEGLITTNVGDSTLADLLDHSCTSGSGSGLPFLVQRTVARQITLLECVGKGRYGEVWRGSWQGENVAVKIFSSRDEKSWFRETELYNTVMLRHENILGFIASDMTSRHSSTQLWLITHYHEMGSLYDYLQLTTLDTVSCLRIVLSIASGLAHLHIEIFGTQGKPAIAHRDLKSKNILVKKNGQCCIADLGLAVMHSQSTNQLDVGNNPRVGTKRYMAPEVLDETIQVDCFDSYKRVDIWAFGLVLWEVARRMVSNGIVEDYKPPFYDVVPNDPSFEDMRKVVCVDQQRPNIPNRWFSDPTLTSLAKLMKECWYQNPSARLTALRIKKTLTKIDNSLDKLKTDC
Briefly: ALK1-6 enzymatic assays: Specifically, compounds were assayed using LANCE® Ultra ULight¿ technology (Perkin Elmer) against human ALK1-6 enzymes (ALK1: Life Technologies, ALK2-6: Carna Biosciences). Briefly, ALK enzyme (10 nM) was prepared in kinase buffer (50 mM HEPES, pH 7.5, 10 mM MgCl2, […], 0.005% Tween-20 and 2 mM DTT) and dispensed at 2.5 μL/well into a 1536 well, white, solid …. On the technique in general: In TR-FRET formats the signal depends on donor and acceptor labels being close together.

In the case of `Cc1cc(-c2cnn3cc(-c4ccc(C5CCNCC5)cc4)cnc23)c2ccccc2n1`, the midpoint of inhibition, the IC50, lay at 23 nM.
